Assay results as given in patent EP0745595A1, “3-(3-Aryloxyphenyl)-1-(substituted methyl)-s-triazine-2,4,6-oxo or thiotrione herbicidal agents” (American Cyanamid Company, priority 1995, dated 1996).

What was measured:
Format in all cases: in vivo
GALIUM APARINE = assay: Postemergence herbicidal evaluation, GALAP (Galium); parameters: key to GALAP rating / Herbicidal effect rating, GALAP / GALAP: 0-9 visual rating scale vs untreated control;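 also: higher means more injury with 8 approaching complete kill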
Procedure, shortened: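 Galium (GALAP) seedlings were raised in jiffy flats for about two weeks, then sprayed with test compounds dispersed in 50/50 acetone/water containing 0.5% TWEEN®20, delivered through a nozzle at 40 psi. Plants were kept on greenhouse benches and visually rated 0-9 against a control four to five weeks later; repeat tests were averaged.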

[1] = test system: GLYCINE MAX(L) MERR. CV. WILLIAMS; assay: Postemergence herbicidal evaluation, GLXMAW (Soybean, Williams); parameters: key to GLXMAW rating / Herbicidal effect rating, GLXMAW / GLXMAW: 0-9 visual rating scale vs untreated control
Procedure, shortened: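 Soybean seedlings (Williams) were raised in jiffy flats for roughly two weeks, then sprayed postemergence through a nozzle at 40 psi with test compound dispersed in 50/50 acetone/water containing 0.5% TWEEN®20. Treated plants were kept on greenhouse benches under normal care and visually rated on a 0-9 scale four to five weeks later.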

[2] = test system: ORYZA SATIVA, L. TEBONNET; assay: Postemergence herbicidal evaluation, ORYSAT (Rice, Tebonnet); parameters: key: 0-9 visual rating scale vs untreated control
Procedure: In the tests, seedling plants are grown in jiffy flats for about two weeks. The test compounds are dispersed in 50/50 acetone/water mixtures containing 0.5% TWEEN®20, a polyoxyethylene sorbitan monolaurate surfactant of Atlas Chemical Industries, in sufficient quantities to provide the equivalent of about 0.125 kg to 0.500 kg per hectare of active compound when applied to the plants through a spray nozzle operating at 40 psi for a predetermined time. After spraying, the plants are placed on greenhouse benches and are cared for in the usual manner, commensurate with conventional greenhouse practices. From four to five weeks after treatment, the seedling plants are examined and rated according to the rating system set forth below. Where more than one test is involved for a given compound, the data are averaged.
Plant species employed in these evaluations are reported by header abbreviation, common name and scientific name.
Results of herbicide evaluation are expressed on a rating scale (0-9). The scale is based upon a visual observation of plant stand, vigor, malformation, size, chlorosis and overall plant appearance as compared with a control.

ZEA MAYS L. = assay: Preemergence herbicidal evaluation, ZEAMX (Corn, Field)
Procedure, shortened: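 Corn (Zea mays) seeds were mixed with potting soil and planted on about one inch of soil in pint cups, then treated preemergence. Cups were kept on greenhouse benches, watered and maintained conventionally, and after four to five weeks were visually rated on a 0-9 scale versus an untreated control.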

[3] = test system: ECHINOCHLOA ORYZOIDES (ARD.)FRITSCH; assay: Preemergence weed control under flooded paddy conditions, ECHORC (Watergrass (Calif.)); settings: pre-weed
Procedure, shortened: (§1)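 Flooded paddy preemergence test: seeds/propagating organs in top 0.5 cm silt loam, water held 1.5-3 cm above soil. Dosing by pipette into flood water, aqueous/acetone 50/50 v/v, ~0.5, 0.25, 0.125, 0.063 kg/ha a.i. Greenhouse; read at 3-4 wk, 0-9 visual scale.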

[4] = test system: GLYCINE MAX(L) MERR. CV. WILLIAMS; assay: Preemergence herbicidal evaluation, GLXMAW (Soybean, Williams); settings: rated four to five weeks after treatment
Procedure, shortened: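 Rated 0-9 by visual comparison with control (stand, vigor, malformation, size, chlorosis, overall appearance) four to five weeks after preemergence soil spray. Dose equivalent to about 0.125 to 0.50 kg per hectare, applied in aqueous acetone to freshly seeded cups kept in greenhouse.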

CYPERUS IRIA = assay: Preemergence weed control under flooded paddy conditions, CYPIR (Rice Flatsedge); settings: for Herbicidal effect rating, CYPIR: preemergence, 3-4 weeks after treatment; for CYPIR: pre-weed
Procedure, shortened: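 Seeds or propagating organs of rice flatsedge were planted in the top 0.5 cm of silt loam soil in 32 oz. plastic containers, 10.5 cm across and without drainage holes. Water was kept 1.5 to 3 cm above the soil throughout. Treated containers were kept on greenhouse benches, and herbicidal effect was visually rated on a 0-9 scale against a control.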

[…], PRESL. = Preemergence weed control under flooded paddy conditions, MOOVA (Monochoria); settings: for Herbicidal effect rating, MOOVA: preemergence, 3-4 weeks after treatment; for MOOVA: pre-weed
Procedure, shortened: as §1

[5] = test system: CYPERUS SEROTINUS, ROTTB.; assay: Preemergence weed control under flooded paddy conditions, CYPSE (Flatsedge); settings: preemergence weeds, rated three to four weeks after treatment
Procedure, shortened: as §1

In the case of Cn1c(=O)[nH]c(=O)n(-c2cc(Oc3c(F)cc(C(F)(F)F)cc3Cl)ccc2[N+](=O)[O-])c1=O [D, reference compound], the GALAP (GALIUM APARINE; Rate 0.008 kg/ha) is reported as 4.0, the GALAP (GALIUM APARINE; Rate 0.016 kg/ha) is reported as 8.0 and the GALAP (GALIUM APARINE; Rate 0.031 kg/ha) is reported as 9.0. The GALAP (GALIUM APARINE; Rate 0.063 kg/ha) was 8.5, the GALAP (GALIUM APARINE; Rate 0.125 kg/ha) was 9.0 and the GLXMAW ([1]; Rate 0.008 kg/ha) was 2.5. It also gave a GLXMAW ([1]; Rate 0.016 kg/ha) of 4.2, a GLXMAW ([1]; Rate 0.031 kg/ha) of 4.5 and a GLXMAW ([1]; Rate 0.063 kg/ha) of 4.7. For the same compound, the GLXMAW ([1]; Rate 0.125 kg/ha) was 5.5, the ORYSAT ([2]; Rate 0.016 kg/ha) was 3.8 and the ORYSAT ([2]; Rate 0.031 kg/ha) was 4.3. It also gave an ORYSAT ([2]; Rate 0.063 kg/ha) of 4.8, an ORYSAT ([2]; Rate 0.125 kg/ha) of 5.3 and a ZEAMX (ZEA MAYS L.; Rate 0.031 kg/ha) of 0.0. For the same compound, the ZEAMX (ZEA MAYS L.; Rate 0.063 kg/ha) was 0.0, the ZEAMX (ZEA MAYS L.; Rate 0.125 kg/ha) was 0.0 and the ZEAMX (ZEA MAYS L.; Rate 0.250 kg/ha) was 0.0. For the same compound, the ECHORC ([3]; Rate 0.031 kg/ha) was 9.0, the ECHORC ([3]; Rate 0.063 kg/ha) was 9.0 and the ECHORC ([3]; Rate 0.125 kg/ha) was 9.0. It also gave an ECHORC ([3]; Rate 0.250 kg/ha) of 9.0.
COC(=O)Cn1c(=O)n(C)c(=O)n(-c2cc(Oc3ccc(C(F)(F)F)cc3Cl)ccc2Cl)c1=O [Compound 39, Methyl 3-{[2-chloro-5-(2-chloro-α,α,α-trifluoro-p-tolyl)oxy]phenyl}tetrahydro-5-methyl-2,4,6-trioxo-s-triazine-1(2H)-acetate] showed a GALAP (GALIUM APARINE; Rate 0.016 kg/ha) of 7.5, a GALAP (GALIUM APARINE; Rate 0.032 kg/ha) of 8.5 and a GALAP (GALIUM APARINE; Rate 0.063 kg/ha) of 7.0. The GALAP (GALIUM APARINE; Rate 0.125 kg/ha) was 8.0, the GALAP (GALIUM APARINE; Rate 0.250 kg/ha) was 9.0 and the GALAP (GALIUM APARINE; Rate 0.500 kg/ha) was 9.0. It also gave a GLXMAW ([1]; Rate 0.016 kg/ha) of 3.8, a GLXMAW ([1]; Rate 0.032 kg/ha) of 4.5 and a GLXMAW ([1]; Rate 0.063 kg/ha) of 5.3. It also gave a GLXMAW ([1]; Rate 0.125 kg/ha) of 5.5, a GLXMAW ([1]; Rate 0.250 kg/ha) of 6.3 and a GLXMAW ([1]; Rate 0.500 kg/ha) of 7.0. It also gave an ORYSAT ([2]; Rate 0.016 kg/ha) of 2.3, an ORYSAT ([2]; Rate 0.032 kg/ha) of 3.3 and an ORYSAT ([2]; Rate 0.063 kg/ha) of 4.8. The ORYSAT ([2]; Rate 0.125 kg/ha) was 4.3, the ORYSAT ([2]; Rate 0.250 kg/ha) was 4.8 and the ORYSAT ([2]; Rate 0.500 kg/ha) was 4.5. For the same compound, the GLXMAW herbicidal rating ([4]; Rate 0.125 kg/ha) was 2.0, the GLXMAW herbicidal rating ([4]; Rate 0.250 kg/ha) was 2.0 and the GLXMAW herbicidal rating ([4]; Rate 0.500 kg/ha) was 2.0. For the same compound, the “Herbicidal effect rating, CYPIR” value (CYPERUS IRIA; 0.063 kg/ha) was 9.0, the “Herbicidal effect rating, CYPIR” value (CYPERUS IRIA; 0.125 kg/ha) was 9.0 and the “Herbicidal effect rating, CYPIR” value (CYPERUS IRIA; 0.250 kg/ha) was 9.0. The “Herbicidal effect rating, CYPIR” value (CYPERUS IRIA; 0.500 kg/ha) was 9.0, the CYPIR (CYPERUS IRIA; Rate 0.031 kg/ha) was 9.0 and the CYPIR (CYPERUS IRIA; Rate 0.063 kg/ha) was 9.0. The CYPIR (CYPERUS IRIA; Rate 0.125 kg/ha) was 9.0, the CYPIR (CYPERUS IRIA; Rate 0.250 kg/ha) was 9.0 and the “Herbicidal effect rating, MOOVA” value ([…], PRESL.; 0.063 kg/ha) was 9.0. For the same compound, the “Herbicidal effect rating, MOOVA” value ([…], PRESL.; 0.125 kg/ha) was 9.0, the “Herbicidal effect rating, MOOVA” value ([…], PRESL.; 0.250 kg/ha) was 9.0 and the “Herbicidal effect rating, MOOVA” value ([…], PRESL.; 0.500 kg/ha) was 9.0. It also gave an MOOVA ([…], PRESL.; Rate 0.031 kg/ha) of 9.0, an MOOVA ([…], PRESL.; Rate 0.063 kg/ha) of 9.0 and an MOOVA ([…], PRESL.; Rate 0.125 kg/ha) of 9.0. The MOOVA ([…], PRESL.; Rate 0.250 kg/ha) was 9.0.
For COC(=O)Cn1c(=O)[nH]c(=O)n(-c2cc(Oc3ccc(C(F)(F)F)cc3Cl)ccc2[N+](=O)[O-])c1=O [Compound 8, Methyl 3-{5-[(2-chloro-α,α,α-trifluoro-p-tolyl)oxy]-2-nitrophenyl}tetrahydro-2,4,6-trioxo-s-triazine-1(2H)-acetate], the CYPSE herbicidal rating ([5]; Rate 0.063 kg/ha) was 0.0, the CYPSE herbicidal rating ([5]; Rate 0.125 kg/ha) was 0.0 and the CYPSE herbicidal rating ([5]; Rate 0.250 kg/ha) was 0.0.
